In ChEMBL document CHEMBL4261619, “Sentulic acid isolated from Sandoricum koetjape Merr attenuates lipopolysaccharide and interferon gamma co-stimulated nitric oxide production in murine macrophage RAW264 cells” (Bioorg Med Chem Lett, 2018):
Active and inactive are the calls of the source. No cut-off for these calls is given here.

Experiments:
[1] = molecular target: T1, Toll-like receptor 4 (Mus musculus) (UniProt Q9QUK6); test: Inhibition of LPS binding to TLR4 in IFNgamma-stimulated mouse RAW264.7 cells assessed as reduction in nitric oxide production pretreated for 2 hrs followed by LPS/IFNgamma stimulation and measured after 24 hrs; type: cell-based
T1 sequence (whole entry): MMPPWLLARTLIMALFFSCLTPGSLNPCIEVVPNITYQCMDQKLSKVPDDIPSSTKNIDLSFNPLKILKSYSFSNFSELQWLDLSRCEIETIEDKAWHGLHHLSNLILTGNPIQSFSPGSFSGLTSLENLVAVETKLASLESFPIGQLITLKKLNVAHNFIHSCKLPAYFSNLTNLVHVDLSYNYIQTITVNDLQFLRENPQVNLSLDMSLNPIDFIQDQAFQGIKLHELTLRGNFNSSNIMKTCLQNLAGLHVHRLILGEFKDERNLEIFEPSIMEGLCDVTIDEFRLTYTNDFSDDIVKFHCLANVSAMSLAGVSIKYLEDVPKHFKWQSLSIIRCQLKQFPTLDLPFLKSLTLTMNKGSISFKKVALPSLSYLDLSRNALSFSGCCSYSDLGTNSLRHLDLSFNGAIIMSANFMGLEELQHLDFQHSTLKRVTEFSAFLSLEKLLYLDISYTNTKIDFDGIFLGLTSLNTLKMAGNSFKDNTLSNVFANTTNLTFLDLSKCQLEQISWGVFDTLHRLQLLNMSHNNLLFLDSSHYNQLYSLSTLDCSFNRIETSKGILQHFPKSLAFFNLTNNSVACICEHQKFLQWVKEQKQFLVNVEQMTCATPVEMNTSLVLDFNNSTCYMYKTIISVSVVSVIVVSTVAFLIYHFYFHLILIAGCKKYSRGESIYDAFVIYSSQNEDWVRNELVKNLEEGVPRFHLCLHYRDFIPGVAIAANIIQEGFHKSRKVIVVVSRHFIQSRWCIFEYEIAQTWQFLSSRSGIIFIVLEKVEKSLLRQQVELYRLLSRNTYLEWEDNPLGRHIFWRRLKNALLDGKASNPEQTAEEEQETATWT

[2] = molecular target: T1, Toll-like receptor 4 (Mus musculus); test: Inhibition of LPS binding to TLR4 in IFNgamma-stimulated mouse RAW264.7 cells assessed as reduction in nitric oxide production at 25 to 100 uM pretreated for 2 hrs followed by LPS/IFNgamma stimulation and measured after 24 hrs; type: cell-based

Row | Compound | inhibition [1] | inhibition [2]
1 | C[C@H]1[C@H](C)CC[C@]2(C(=O)O)CC[C@]3(C)C(=CC[C@@H]4[C@@]5(C)CC[C@H](O)C(C)(C)[C@@H]5CC[C@]43C)[C@H]12 | Dose-dependent effect | –
2 | CC1(C)CC[C@]2(C)CC[C@]3(C(=O)O)C(=CC[C@@H]4[C@@]5(C)CCC(=O)C(C)(C)[C@@H]5CC[C@]43C)[C@@H]2C1 | – | inactive
3 | C=C(C)[C@@H]1CC[C@]2(C(=O)O)CC[C@]3(C)[C@H](CC[C@@H]4[C@@]5(C)CC[C@H](O)C(C)(C)[C@@H]5CC[C@]43C)[C@@H]12 | – | inactive
4 | CC1(C)CC[C@]2(C(=O)O)CC[C@]3(C)C(=CC[C@@H]4[C@@]5(C)CC[C@H](O)C(C)(C)[C@@H]5CC[C@]43C)[C@@H]2C1 | – | inactive
5 | CC1(C)[C@@H](O)CC[C@]2(C)[C@H]3C(=O)C=C4[C@@H]5C[C@@](C)(C(=O)O)CC[C@]5(C)CC[C@@]4(C)[C@]3(C)CC[C@@H]12 | – | inactive
